# Measured values reported in patent publication US11066378B2, “Caffeic acid derivatives for anti-angiogenesis” (Taipei Medical University, priority 2015, dated 2021).
# Experiments:
# HUVECs [1] = assay: Cell viability assay (MTT assay), growth inhibition of HUVECs; assay type: cell-based, human
# Protocol: (§1) Human umbilical vein endothelial cells (HUVECs; #8000) were purchased from the ScienCell Research Laboratories (San Diego, Calif., USA). The cells were seeded on gelatin-coated culture dishes and grown in the commercial endothelial cell medium (#1001; ScienCell) containing 5% fetal bovine serum (FBS; #0025; ScienCell), 30 μg/mL endothelial cell growth supplements (ECGS; #1052; ScienCell), 100 units/mL penicillin G, and 100 μg/mL streptomycin sulfates (#0503; ScienCell). Cells at passage 3-6 were used for experiments. Mouse Lewis lung carcinoma cell line 1 (LLC1; #60050) was bought from the Food Industry Research and Development Institute (Hsinchu, Taiwan) and cultured in Gibco® Dulbecco's modified Eagle's medium (#12800-017; Invitrogen, Carlsbad, Calif., USA) supplemented with 10% FBS (HyClone, Logan, Utah, USA), 4 mM L-glutamine, 1.5 g/L sodium bicarbonate, 100 units/mL penicillin G, and 100 μg/mL streptomycin. All cells were incubated in a humidified 5% CO2 atmosphere at 37° C. and culture media was changed every 2˜3 days.
# The experiments were performed according to our previous study with minor modifications (Pan et al., 2010). Briefly, the cells (2×10^4 cells/well) were seeded and grown under normal culture medium for 24 h. After another 24 h of starvation with 0.5% FBS, the cells were treated with several concentrations (1, 2, 4, 8, and 16 μM) of the tested compounds for 24 h and then incubated with 5 mg/mL of MTT (3-[4,5-dimethyl thiazol-2-yl]-2,5-diphenyl tetrazolium bromide) for 2 h. After that, the cells were washed with 1×PBS and then dimethyl sulfoxide (DMSO) was added to each well. Absorbance values at 570 nm were determined for each well using 650 nm as the reference wavelength. The absorbance of the control group (treated with 5% or 10% FBS alone) was defined as 100%.
# LLC1 lung cancer cells = assay: Cell viability assay (MTT assay), growth inhibition of LLC1 cells; assay type: cell-based, mouse; conditions: normal culture condition
# Protocol: as §1
# The experiments were performed according to our previous study with minor modifications (Pan et al., 2010). […] Absorbance values at 570 nm were determined for each well using 650 nm as the reference wavelength. The absorbance of the control group (treated with 5% or 10% FBS alone) was defined as 100%.
# [2] = tested on: angiogenesis in chick chorioallantoic membrane; assay: Chick chorioallantoic membrane (CAM) assay; conditions: ex vivo supplementary data, dose-dependent
# HUVECs [3] = assay: Matrigel cell invasion assay; assay type: cell-based, human; conditions: 0.5 μM, 16 h, FIG. 3B
# Protocol: For evaluating cell migration, the HUVECs (1×10^5 cells/well) suspended within serum-free culture medium were seeded on inner surface of the upper chamber (ThinCerts™ Cell Culture Inserts with 8 μm pore size; #662638; Greiner Bio-One Inc., Monroe, N.C., USA) placed in the lower chamber (wells of a 24-well plate). For examining the cell invasion, the HUVECs were pre-mixed with equal volume of thawed Matrigel and rapidly seeded on the upper chamber. After 2 h for cell attachment, K20E at different concentrations (0.5, 1, and 2 μM) were added in the upper and the lower chambers, while 5% FBS as a chemoattractant was added in the lower chamber to facilitate cell migration or invasion. After 16 h incubation, the culture medium (or Matrigel) was removed clearly from inside the upper chamber, and the migrated or invasion cells attached on the outer surface of the upper chamber were fixed with 10% formaldehyde for 10 min at RT. The fixed cells were subsequently counterstained with hematoxylin. Relative cell number of each groups was counted from five random regions by light microscopy using a 40-fold magnification. The cell number of the control group (treated with 5% FBS alone) was defined as 100%.
# VEGF = VEGF level in LLC1 cells (immunoblot) and culture medium (ELISA); assay type: cell-based, mouse; conditions: 24 h, FIG. 5
# Protocol: The experiments were carried out as described previously (Pan et al., 2010). Briefly, the cells (5×10^5 cells/well) seeded on the 6-well plates and incubated with different concentrations (0.5, 1, and 2 μM) of K20E under normal culture condition for 15 min or 24 h to detect the expression levels of the phosphorylated proteins and the total proteins, respectively. The treated cells were harvested and lysed by using PROPREP® protein extraction solution (#17081; iNtRON Biotechnology, Gyeonggi-Do, South Korea). The cell lysates were further centrifuged at 13000×g at 4° C. for 10 min to collect the supernatants for sodium dodecyl sulfate-polyacrylamide gel electrophoresis (SDS-PAGE). Protein concentration was measured by the Bio-Rad protein assay kit (Bio-Rad, Hercules, Calif., USA) according to the manufacturer's instructions. Aliquots containing 30 μg protein were electrophoresed using 10% slab SDS-PAGE gels and then transferred to PVDF membranes (Immobilon-P™; Millipore, Bedford, Mass., USA). […] The luminescence signal was acquired by Fujifilm LAS-4000 system (San Leandro, Calif., USA) and quantified by using MultiGauge software (v3.0; Fujifilm). […] The relative protein expression was calculated according to the values of the control group (treated with 5% or 10% FBS alone) as 100%. […]
structure (smiles),measurement,setting,value
COC(=O)/C=C/c1cc(OC(C)=O)c2c(c1)[C@H](C(=O)OC)[C@@H](c1ccc(OC(C)=O)c(OC(C)=O)c1)O2 [K20E],GI50,"HUVECs [1]; Homo sapiens, HUVEC, 24 h, MTT assay, 24 h treatment, 5% FBS-stimulated HUVECs",~7.5 µM
same,5% FBS-stimulated cell growth of the HUVECs,"HUVECs [1]; dose-dependent, FIG. 2A",markedly reduced
same,GI50,"LLC1 lung cancer cells; Mus musculus, LLC1 lung cancer cells, data not shown, read-out: GI50 value on LLC1 (concentration that causes 50% growth inhibition)",~79.4 µM
same,cell viability of the LLC1 lung cancer cells,LLC1 lung cancer cells,significantly inhibit
same,angiogenesis in CAM assay,[2],effectively reduce the angiogenesis
same,5% FBS-induced cell invasion of the HUVECs,HUVECs [3],largely suppressed
same,intracellular level of VEGF protein,"VEGF; LLC1 cancer cells, immunoblot",dose-dependently decrease
same,secreted level of VEGF protein,"VEGF; LLC1 culture medium, ELISA",dose-dependently decrease
